Consider one compound from ChEMBL document CHEMBL5042519, “Design and synthesis of marine sesterterpene analogues as novel estrogen receptor α degraders for breast cancer treatment” (Eur J Med Chem, 2022).

Series [1] has as its target T1, Estrogen receptor (Homo sapiens) (UniProt P03372).
T1 sequence (whole entry): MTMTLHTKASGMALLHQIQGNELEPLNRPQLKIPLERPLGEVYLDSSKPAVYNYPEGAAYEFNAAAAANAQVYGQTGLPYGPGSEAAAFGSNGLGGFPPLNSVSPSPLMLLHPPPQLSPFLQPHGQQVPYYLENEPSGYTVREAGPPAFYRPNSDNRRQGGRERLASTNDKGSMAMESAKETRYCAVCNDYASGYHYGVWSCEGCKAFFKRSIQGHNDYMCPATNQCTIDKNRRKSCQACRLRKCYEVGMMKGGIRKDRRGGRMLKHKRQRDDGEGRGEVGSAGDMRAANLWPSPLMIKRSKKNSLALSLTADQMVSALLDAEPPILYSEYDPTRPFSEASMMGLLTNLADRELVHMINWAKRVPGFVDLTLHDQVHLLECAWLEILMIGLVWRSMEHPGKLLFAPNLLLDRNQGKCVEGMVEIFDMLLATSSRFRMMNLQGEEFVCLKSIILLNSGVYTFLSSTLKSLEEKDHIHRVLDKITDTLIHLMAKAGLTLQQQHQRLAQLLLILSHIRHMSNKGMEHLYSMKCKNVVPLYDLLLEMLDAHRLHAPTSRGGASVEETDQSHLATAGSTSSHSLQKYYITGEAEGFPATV
As to the kind of experiment: Induction of ERalpha degradation in human MCF7 cells assessed as decrease in ERalpha protein expression at 1 uM incubated for 24 hrs by Western blot analysis. The series is classed as cell-based. On the technique in general: A western blot detects proteins with antibodies after separation by electrophoresis.

For series [2], the system named is MCF7. As to the kind of experiment: Induction of apoptosis in human MCF7 cells assessed as early apoptotic cells at 2 uM incubated for 24 hrs by annexin-V and PI staining based flow cytometry analysis relative to control. The class given is functional. (In general: A flow cytometer gives signals particle by particle.)
Series [3] in a line: Metabolic stability in rat plasma assessed as parent compound remaining incubated for 60 mins in presence of NADPH by UPLC-MS analysis. The class given is ADME, cell-free. Particulars: read-out: Stability.
Series [4] deals with MCF7. Nature of the series: Effect on cell morphology in human MCF7 cells assessed as appearance of round cells at 0.5 to 2 uM measured after 24 hrs by Hoechst 33342 staining based fluorescence microscopy. The class given is functional. Particulars: dose 0.5-2 µM.
For series [5], the system named is MCF7. Nature of the series: Antiproliferative activity against human MCF7 cells assessed as reduction in cell viability after 48 hrs by MTT assay. Particulars: MCF7, 48 h. The class given is functional, cell-based.
The nature of series [6]: Selectivity index, ratio of IC50 for antiproliferative activity against human MCF-10A cells to IC50 for antiproliferative activity against human MDA-MB-231 cells by MTT assay. Particulars: MCF-10A cells versus MDA-MB-231 cells, read-out: Ratio IC50. The series is classed as toxicity, cell-based. (Tetrazolium assays rely on reduction of a dye to a coloured formazan, in cell work by metabolically active cells.)

The subject of series [7] is MCF7. Nature of the series: Cell cycle arrest in human MCF7 cells assessed as reduction in cyclin D1 expression at 0.5 to 3 uM and measured after 24 hrs by Western blot analysis. The class given is functional, cell-based. Particulars: dose 0.5-3 µM.
Series [8] deals with MCF7. Nature of the series: Cell cycle arrest in human MCF7 cells assessed as accumulation at G1 phase at 0.5 uM measured after 24 hrs by propidium iodide staining based flow cytometry (reference value: 73.45 %). The series is classed as functional.
Series [9] has as its system MDA-MB-231. As to the kind of experiment: Antiproliferative activity against human MDA-MB-231 cells assessed as reduction in cell viability after 48 hrs by MTT assay. Particulars: MDA-MB-231, 48 h.
For series [10], the target named is T2, Progesterone receptor (Homo sapiens) (UniProt P06401).
T2 sequence (whole entry): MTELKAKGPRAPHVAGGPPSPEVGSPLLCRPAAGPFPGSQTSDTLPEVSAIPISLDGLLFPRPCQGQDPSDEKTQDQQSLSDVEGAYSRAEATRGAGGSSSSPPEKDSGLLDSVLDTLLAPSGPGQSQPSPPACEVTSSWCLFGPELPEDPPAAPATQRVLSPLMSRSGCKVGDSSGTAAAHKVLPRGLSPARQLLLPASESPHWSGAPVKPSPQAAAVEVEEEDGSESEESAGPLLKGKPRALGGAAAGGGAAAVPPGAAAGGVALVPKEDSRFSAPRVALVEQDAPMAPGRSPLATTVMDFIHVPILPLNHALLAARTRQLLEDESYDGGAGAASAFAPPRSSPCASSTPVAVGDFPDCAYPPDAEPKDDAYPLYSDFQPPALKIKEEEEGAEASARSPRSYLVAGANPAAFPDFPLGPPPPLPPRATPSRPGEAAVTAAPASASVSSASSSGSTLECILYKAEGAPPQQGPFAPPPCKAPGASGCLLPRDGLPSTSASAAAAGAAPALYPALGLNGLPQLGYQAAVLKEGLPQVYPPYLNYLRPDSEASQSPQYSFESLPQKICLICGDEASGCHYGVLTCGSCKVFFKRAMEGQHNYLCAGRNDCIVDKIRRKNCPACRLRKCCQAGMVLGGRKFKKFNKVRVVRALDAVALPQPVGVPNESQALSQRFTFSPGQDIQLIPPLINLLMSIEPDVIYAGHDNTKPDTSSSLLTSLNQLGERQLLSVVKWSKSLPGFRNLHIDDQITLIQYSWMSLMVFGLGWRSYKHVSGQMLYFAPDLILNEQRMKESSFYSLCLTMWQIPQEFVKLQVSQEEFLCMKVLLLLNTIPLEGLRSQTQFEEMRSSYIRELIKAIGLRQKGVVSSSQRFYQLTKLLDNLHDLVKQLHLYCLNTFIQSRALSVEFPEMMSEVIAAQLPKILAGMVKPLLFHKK
As to the kind of experiment: Induction of progesterone receptor degradation in human MCF7 cells assessed as decrease in PR level at 1 uM incubated for 24 hrs by Western blot analysis. The series is classed as cell-based.

Series [11] has as its system MCF7. As to the kind of experiment: Induction of apoptosis in human MCF7 cells assessed as early apoptotic cells at 0.5 uM incubated for 24 hrs by annexin-V and PI staining based flow cytometry analysis relative to control. The class given is functional.
The target in series [12] is T1, Estrogen receptor (Homo sapiens). As to the kind of experiment: Induction of ERalpha degradation in human MCF7 cells assessed as ERalpha level at 3 uM measured after 24 hrs in presence of proteasome inhibitor MG132 by Western blot analysis. The class given is cell-based.
For series [13], the system named is MCF7. Nature of the series: Inhibition of colony formation in human MCF7 cells at 2 uM measured after 9 days by crystal violet staining based assay relative to control. Particulars: time 9.0 day. The class given is functional, cell-based.
The target in series [14] is T1, Estrogen receptor (Homo sapiens). Nature of the series: Induction of ERalpha degradation in human MCF7 cells assessed as decrease in ERalpha protein expression at 3 uM measured upto 24 hrs by Western blot analysis. The class given is cell-based. Particulars: time hrs <=24, TDE = time-dependent effect.
In series [15] the test system is MCF7. As to the kind of experiment: Cell cycle arrest in human MCF7 cells assessed as accumulation at G1 phase at 1 uM measured after 24 hrs by propidium iodide staining based flow cytometry (reference value: 73.45 %). The series is classed as functional.
Series [16] relates to MCF7. As to the kind of experiment: Induction of apoptosis in human MCF7 cells assessed as increase in cleaved caspase 3 level at 0.5 to 3 uM and measured after 24 hrs Western blot analysis relative to control. The class given is functional, cell-based. Particulars: dose 0.5-3 µM.
The subject of series [17] is MCF7. As to the kind of experiment: Induction of apoptosis in human MCF7 cells assessed as increase in Bax protein level at 0.5 to 3 uM and measured after 24 hrs Western blot analysis relative to control. The class given is functional, cell-based. Particulars: dose 0.5-3 µM.
Series [18] concerns MCF7. As to the kind of experiment: Induction of mitochondrial membrane potential loss in human MCF7 cells measured after 24 hrs by JC-1 staining based flow cytometry. The class given is functional, cell-based.
In series [19] the test system is MCF7. Nature of the series: Antiproliferative activity against human MCF7/ADR cells assessed as reduction in cell viability after 48 hrs by MTT assay. The class given is functional, cell-based. Particulars: MCF7, 48 h.
Series [20] relates to MCF7. As to the kind of experiment: Cell cycle arrest in human MCF7 cells assessed as reduction in CDK4 expression at 0.5 to 3 uM and measured after 24 hrs by Western blot analysis. The series is classed as functional, cell-based. Particulars: dose 0.5-3 µM.

Molecules are shown by their SMILES. Activity calls are given as the source filed them. The rule behind the calls is not given here.

Consider `CC1=CC(=O)[C@H]2/C(C=O)=C\C[C@H]3[C@@H]([C@@H](C)/C=C\C=C/C(=O)OCCOCCOCCOC(=O)CC45CC6CC(CC(C6)C4)C5)CC[C@]3(C)C[C@H]12`, for which the outcome in series [1], in series [4], in [17] and in [18] was Active. For the same compound, the Activity was 32.3% in series [2]; “Dose-Dependent Effect” in [7]; 74.77% in series [8]; 6.9% in [11]; “Tde” in series [14]; 78.07% in series [15]. The Activity entry in [16] and in [20] was “Dose-Dependent Effect” in each case. In addition, in series [3], the remaining at 1 h was determined as 81%. For the same compound, the IC50 in series [5] was determined as 410 nM; in [9], 310 nM; in series [19], 480 nM. Moreover, the selectivity ratio in series [6] was determined as 5.34. Also, the outcome in series [10] and in [12] was inactive. Moreover, in [13], the inhibition entry is “Active”.

In general, IC50 refers to the concentration needed to halve the response being measured.
